Data from patent US20240358702A1, “CYCLIC UREA KRAS INHIBITORS” (INCYTE CORPORATION, priority 2023, published 2024).

Assays:
KRAS G12V = KRAS G12V (Homo sapiens, UniProt P01116, G12V); test: GDP-GTP exchange assay (bodipy-GDP/GppNHp, SOS1), KRAS G12V; assay type: biochemical; conditions: KRAS_G12V exchange assay IC50, value for the most potent isomer quoted; for IC50: read-out: G12V_exchange
Experimental: (§1) The inhibitor potency of the exemplified compounds was determined in a fluorescence based guanine nucleotide exchange assay, which measures the exchange of bodipy-GDP (fluorescently labeled GDP) for GppNHp (Non-hydrolyzable GTP analog) to generate the active state of KRAS in the presence of SOS1 (guanine nucleotide exchange factor). Inhibitors were serially diluted in DMSO and a volume of 0.1 μL was transferred to the wells of a black low volume 384-well plate. 5 μL/well volume of bodipy-loaded KRAS G12D diluted to […] in assay buffer (25 mM Hepes pH 7.5, 50 mM NaCl, 10 mM mgCl2 and 0.01% Brij-35) was added to the plate and pre-incubated with inhibitor for 4 h at ambient temperature. Appropriate controls (enzyme with no inhibitor or with a G12D inhibitor) were included on the plate. The exchange was initiated by the addition of a 5 μL/well volume containing 1 mM GppNHp and 300 nM SOS1 in assay buffer. The 10 μL/well reaction concentration of the bodipy-loaded KRAS G12D, GppNHp, and SOS1 were 2.5 nM, 500 uM, and 150 nM, respectively. The reaction plates were incubated at ambient temperature for 2 h, a time estimated for complete GDP-GTP exchange in the absence of inhibitor. For the KRAS G12V mutant, similar guanine nucleotide exchange assays were used with 2.5 nM as final concentration for the bodipy loaded KRAS proteins and 3 h incubation after adding GppNHp-SOS1 mixture. A cyclic peptide described to selectively bind G12D mutant (Sakamoto et al., BBRC 484.3 (2017), 605-611) or internal compounds with confirmed binding were used as positive controls in the assay plates. Fluorescence intensities were measured on a PheraStar plate reader instrument (BMG Labtech) with excitation at 485 nm and emission at 520 nm.
(§2) Either GraphPad prism or Genedata Screener SmartFit was used to analyze the data. The IC50 values were derived by fitting the data to a four parameter logistic equation producing a sigmoidal dose-response curve with a variable Hill coefficient.
(§3) The symbol “t” indicates IC50≤100 nM, “††” indicates IC50>100 nM but ≤1 μM; and “†††” indicates IC50 is >1 μM but ≤5 μM, “††††” indicates IC50 is >5 μM but ≤10 μM. “NA” indicates IC50 not available.

KRAS G12D = KRAS G12D (Homo sapiens, UniProt P01116, G12D); test: GDP-GTP exchange assay (bodipy-GDP/GppNHp, SOS1), KRAS G12D; assay type: biochemical; conditions: KRAS_G12D exchange assay IC50; 4 h pre-incubation; value for the most potent isomer quoted
KRAS G12D, sequence (P01116 1-188 isoform P01116-2 G12D): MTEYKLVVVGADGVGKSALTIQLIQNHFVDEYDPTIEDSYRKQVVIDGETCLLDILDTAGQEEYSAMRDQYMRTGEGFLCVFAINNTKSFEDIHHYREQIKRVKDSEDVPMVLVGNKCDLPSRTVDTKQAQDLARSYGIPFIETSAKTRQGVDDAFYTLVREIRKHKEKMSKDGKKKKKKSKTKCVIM
Experimental: as §1, §2, §3

KRAS G12V, sequence (P01116 1-188 isoform P01116-2 G12V): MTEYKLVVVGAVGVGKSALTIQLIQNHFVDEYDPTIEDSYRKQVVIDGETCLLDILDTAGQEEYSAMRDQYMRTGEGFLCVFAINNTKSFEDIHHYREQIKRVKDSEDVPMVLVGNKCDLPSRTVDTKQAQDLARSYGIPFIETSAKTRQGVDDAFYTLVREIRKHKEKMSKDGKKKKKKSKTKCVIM

Row | Compound | G12V_exchange (KRAS G12V) | G12D_exchange (KRAS G12D) | IC50 (KRAS G12V)
1 | Cc1nc2c(F)c(-c3cccc(Cl)c3Cl)c(CCC#N)cc2c2c1cc([C@@H](C)N1CCCN(c3ccnc4sccc34)C1=O)n2[C@H]1[C@H]2CN[C@@H]1C2 (single isomer, unassigned) [Example 8] | † | † | –
2 | Cc1nc2c(F)c(-c3cccc(Cl)c3Cl)c(CCC#N)cc2c2c1cc([C@@H](C)N1CCCN(c3ccnc(C(F)F)c3)C1=O)n2[C@H]1[C@H]2CN[C@@H]1C2 (single isomer, unassigned) [Example 12] | – | † | 100 to 1000 nM
3 | Cc1nc2c(F)c(-c3cccc(Cl)c3Cl)c(CCC#N)cc2c2c1cc([C@@H](C)N1CCCN(c3ccc(F)cc3)C1=O)n2[C@H]1[C@H]2CN[C@@H]1C2 [Example 18, 3-(1-((1R,4R,5S)-2-azabicyclo[2.1.1]hexan-5-yl)-7-(2,3-dichlorophenyl)-6-fluoro-2-((R)-1-(3-(4-fluorophenyl)-2-oxotetrahydropyrimidin-1(2H)-yl)ethyl)-4-methyl-1H-pyrrolo[3,2-c]quinolin-8-yl)propanenitrile] | † | † | –
4 | Cc1nc2c(F)c(-c3cccc(Cl)c3Cl)c(CCC#N)cc2c2c1cc([C@@H](C)N1CCCN(c3ccccn3)C1=O)n2[C@H]1[C@H]2CN[C@@H]1C2 [Example 19, 3-(1-((1R,4R,5S)-2-azabicyclo[2.1.1]hexan-5-yl)-7-(2,3-dichlorophenyl)-6-fluoro-4-methyl-2-((R)-1-(2-oxo-3-(pyridin-2-yl)tetrahydropyrimidin-1(2H)-yl)ethyl)-1H-pyrrolo[3,2-c]quinolin-8-yl)propanenitrile] | † | † | –
5 | COc1ncccc1N1CCCN([C@H](C)c2cc3c(C)nc4c(F)c(-c5cccc(Cl)c5Cl)c(CCC#N)cc4c3n2[C@H]2[C@H]3CN[C@@H]2C3)C1=O [Example 20, 3-(1-((1R,4R,5S)-2-azabicyclo[2.1.1]hexan-5-yl)-7-(2,3-dichlorophenyl)-6-fluoro-2-((R)-1-(3-(2-methoxypyridin-3-yl)-2-oxotetrahydropyrimidin-1(2H)-yl)ethyl)-4-methyl-1H-pyrrolo[3,2-c]quinolin-8-yl)propanenitrile] | – | † | 100 to 1000 nM
6 | COc1cc(N2CCCN([C@H](C)c3cc4c(C)nc5c(F)c(-c6cccc(Cl)c6Cl)c(CCC#N)cc5c4n3[C@H]3[C@H]4CN[C@@H]3C4)C2=O)ccn1 [Example 22, 3-(1-((1R,4R,5S)-2-azabicyclo[2.1.1]hexan-5-yl)-7-(2,3-dichlorophenyl)-6-fluoro-2-((R)-1-(3-(2-methoxypyridin-4-yl)-2-oxotetrahydropyrimidin-1(2H)-yl)ethyl)-4-methyl-1H-pyrrolo[3,2-c]quinolin-8-yl)propanenitrile] | † | † | –
7 | Cc1nc2c(F)c(-c3cccc(Cl)c3Cl)c(CCC#N)cc2c2c1cc([C@@H](C)N1CCCN(c3cccc(C4(O)COC4)c3)C1=O)n2[C@H]1[C@H]2CN[C@@H]1C2 [Example 24, 3-(1-((1R,4R,5S)-2-azabicyclo[2.1.1]hexan-5-yl)-7-(2,3-dichlorophenyl)-6-fluoro-2-((R)-1-(3-(3-(3-hydroxyoxetan-3-yl)phenyl)-2-oxotetrahydropyrimidin-1(2H)-yl)ethyl)-4-methyl-1H-pyrrolo[3,2-c]quinolin-8-yl)propanenitrile] | † | † | –
8 | Cc1nc2c(F)c(-c3cccc(Cl)c3Cl)c(CCC#N)cc2c2c1cc([C@@H](C)N1CCCN(c3ccc(C#N)cc3)C1=O)n2[C@H]1[C@H]2CN[C@@H]1C2 [Example 25, 4-(3-((1R)-1-(1-((1R,4R,5S)-2-azabicyclo[2.1.1]hexan-5-yl)-8-(2-cyanoethyl)-7-(2,3-dichlorophenyl)-6-fluoro-4-methyl-1H-pyrrolo[3,2-c]quinolin-2-yl)ethyl)-2-oxotetrahydropyrimidin-1(2H)-yl)benzonitrile] | – | † | 100 to 1000 nM

Second part, the compound after the results:

Row | G12V_exchange (KRAS G12V) | G12D_exchange (KRAS G12D) | IC50 (KRAS G12V) | Compound
9 | † | † | – | Cc1nc2c(F)c(-c3cccc(Cl)c3Cl)c(CCC#N)cc2c2c1cc([C@@H](C)N1CCCN(c3cncnc3)C1=O)n2[C@H]1[C@H]2CN[C@@H]1C2 (single isomer, unassigned) [Example 10]
10 | – | † | 100 to 1000 nM | Cc1nc2c(F)c(-c3cccc(Cl)c3Cl)c(CCC#N)cc2c2c1cc([C@@H](C)N1CCCN(c3ccncn3)C1=O)n2[C@H]1[C@H]2CN[C@@H]1C2 (single isomer, unassigned) [Example 11]
11 | – | † | 100 to 1000 nM | Cc1nc2c(F)c(-c3cccc(Cl)c3Cl)c(CCC#N)cc2c2c1cc([C@@H](C)N1CCCN(c3ccnnc3)C1=O)n2[C@H]1[C@H]2CN[C@@H]1C2 [Example 9, 3-(1-((1R,4R,5S)-2-azabicyclo[2.1.1]hexan-5-yl)-7-(2,3-dichlorophenyl)-6-fluoro-4-methyl-2-((R)-1-(2-oxo-3-(pyridazin-4-yl)tetrahydropyrimidin-1(2H)-yl)ethyl)-1H-pyrrolo[3,2-c]quinolin-8-yl)propanenitrile]
12 | † | † | – | Cc1nc2c(F)c(-c3cccc(Cl)c3Cl)c(CCC#N)cc2c2c1cc([C@@H](C)N1CCCN(c3ccccc3)C1=O)n2[C@H]1[C@H]2CN[C@@H]1C2 [Example 16, 3-(1-((1R,4R,5S)-2-azabicyclo[2.1.1]hexan-5-yl)-7-(2,3-dichlorophenyl)-6-fluoro-4-methyl-2-((R)-1-(2-oxo-3-phenyltetrahydropyrimidin-1(2H)-yl)ethyl)-1H-pyrrolo[3,2-c]quinolin-8-yl)propanenitrile]
13 | – | † | 100 to 1000 nM | Cc1nc2c(F)c(-c3cccc(Cl)c3Cl)c(CCC#N)cc2c2c1cc([C@@H](C)N1CCCN(c3ccncc3)C1=O)n2[C@H]1[C@H]2CN[C@@H]1C2 [Example 17, 3-(1-((1R,4R,5S)-2-azabicyclo[2.1.1]hexan-5-yl)-7-(2,3-dichlorophenyl)-6-fluoro-4-methyl-2-((R)-1-(2-oxo-3-(pyridin-4-yl)tetrahydropyrimidin-1(2H)-yl)ethyl)-1H-pyrrolo[3,2-c]quinolin-8-yl)propanenitrile]
14 | † | † | – | Cc1nc2c(F)c(-c3cccc(Cl)c3Cl)c(CCC#N)cc2c2c1cc([C@@H](C)N1CCCN(c3ccncc3F)C1=O)n2[C@H]1[C@H]2CN[C@@H]1C2 [Example 21, 3-(1-((1R,4R,5S)-2-azabicyclo[2.1.1]hexan-5-yl)-7-(2,3-dichlorophenyl)-6-fluoro-2-((R)-1-(3-(3-fluoropyridin-4-yl)-2-oxotetrahydropyrimidin-1(2H)-yl)ethyl)-4-methyl-1H-pyrrolo[3,2-c]quinolin-8-yl)propanenitrile]
15 | † | † | – | Cc1nc2c(F)c(-c3cccc(Cl)c3Cl)c(CCC#N)cc2c2c1cc([C@@H](C)N1CCCN(c3cccnc3)C1=O)n2[C@H]1[C@H]2CN[C@@H]1C2 [Example 23, 3-(1-((1R,4R,5S)-2-azabicyclo[2.1.1]hexan-5-yl)-7-(2,3-dichlorophenyl)-6-fluoro-4-methyl-2-((R)-1-(2-oxo-3-(pyridin-3-yl)tetrahydropyrimidin-1(2H)-yl)ethyl)-1H-pyrrolo[3,2-c]quinolin-8-yl)propanenitrile]
16 | – | † | 100 to 1000 nM | Cc1cc(N2CCCN([C@H](C)c3cc4c(C)nc5c(F)c(-c6cccc(Cl)c6Cl)c(CCC#N)cc5c4n3[C@H]3[C@H]4CN[C@@H]3C4)C2=O)ccn1 [Example 26, 3-(1-((1R,4R,5S)-2-azabicyclo[2.1.1]hexan-5-yl)-7-(2,3-dichlorophenyl)-6-fluoro-4-methyl-2-((R)-1-(3-(2-methylpyridin-4-yl)-2-oxotetrahydropyrimidin-1(2H)-yl)ethyl)-1H-pyrrolo[3,2-c]quinolin-8-yl)propanenitrile]
17 | – | † | – | Cc1nc2c(F)c(-c3cccc(Cl)c3Cl)c(CCC#N)cc2c2c1cc([C@@H](C)N1CCCN(c3ccnnc3)C1=O)n2[C@H]1[C@H]2CN[C@@H]1C2 [Example 35, 3-(1-((1R,4R,5S)-2-azabicyclo[2.1.1]hexan-5-yl)-7-(2,3-dichlorophenyl)-6-fluoro-4-methyl-2-((R)-1-(2-oxo-3-(pyridazin-4-yl)tetrahydropyrimidin-1(2H)-yl)ethyl)-1H-pyrrolo[3,2-c]quinolin-8-yl)propanenitrile]
